Source: US4591599A, “Perfluoropyrrolizines and emulsions thereof useful as blood substitutes” (The Green Cross Corporation, priority 1984, dated 1986)

Legend:
Wister-strain male rats = experiment: Acute toxicity test; format: in vivo; details: 100 ml/kg-body weight, intravenous, observed for one week
Procedure: The acute toxicity test on the preparations of the present invention was carried out using the preparations of the present invention shown in Table 4 which had been physiologically isotonized. The test animals used were Wister-strain male rats (weighing 100-120 g).

[1] = Distribution of perfluoro-compound in organs (gas chromatography); format: in vivo, Wister-strain male rats; details: 4 g/kg, tail vein, rats

| Compound | death cases (Wister-strain male rats) | adverse influence on the liver or spleen organ ([1]; 3 months) | uptake by and disappearance from the reticulo-endothelial organs ([1]; 3 months) | Residual Rate of perfluorobicyclo compound ([1]; Liver, 1 week after administration) [%] | Residual Rate of perfluorobicyclo compound ([1]; Liver, 2 weeks after administration) [%] | Residual Rate of perfluorobicyclo compound ([1]; Liver, 3 months after administration) [%] | Residual Rate of perfluorobicyclo compound ([1]; Liver, 4 weeks after administration) [%] | Residual Rate of perfluorobicyclo compound ([1]; Spleen, 1 week after administration) [%] | Residual Rate of perfluorobicyclo compound ([1]; Spleen, 2 weeks after administration) [%] | Residual Rate of perfluorobicyclo compound ([1]; Spleen, 3 months after administration) [%] | Residual Rate of perfluorobicyclo compound ([1]; Spleen, 4 weeks after administration) [%] |
| --- | --- | --- | --- | --- | --- | --- | --- | --- | --- | --- | --- |
| FC(F)(F)C1(F)N2C(F)(F)C(F)(F)C(F)(F)C(F)(F)C2(F)C(F)(F)C(F)(F)C1(F)F (stereo not drawn) [Example 1, perfluoro-4-methyloctahydroquinolidine] | no death case | no evidence of adverse influence on the liver or spleen organ | taken up in greater amounts by the reticulo-endothelial organs shortly after the administration, but soon disappeared rapidly | 19.92 | 8.66 | 0.30 | 1.88 | 11.61 | 9.33 | 0.09 | 2.45 |
| FC(F)(F)C(F)(F)C1(F)N2C(F)(F)C(F)(F)C(F)(F)C(F)(F)C2(F)C(F)(F)C(F)(F)C1(F)F (stereo not drawn) [Example 101, perfluoro-4-ethyloctahydroquinolidine] | no death case | – | – | – | – | – | – | – | – | – | – |
